From ChEMBL document CHEMBL1121427, “Decomposition of pharmacological activity indices into mutually independent components using principal component analysis” (J Med Chem, 1980)

Tests used:
Type in all cases: functional
Set-up in all cases: unit not given here
Staphylococcus aureus = test: The compound was evaluated for activity against strain Micrococcus aureus
Streptococcus pyogenes = test: The compound was evaluated for activity against strain Streptococcus hemolyticus
Enterococcus faecalis = test: The compound was evaluated for activity against strain Streptococcus faecalis
Bacillus subtilis = test: Inhibitory activity against Bacillus subtilis

Row | Structure (SMILES) | -Log C (Staphylococcus aureus) | -Log C (Streptococcus pyogenes) | -Log C (Enterococcus faecalis) | -Log C (Bacillus subtilis)
1 | COC1/C=C/OC2(C)Oc3c(C)c(O)c4c(O)c(cc(OCC(=O)Nc5ccccc5)c4c3C2=O)NC(=O)/C(C)=C\C=C\C(C)C(O)C(C)C(O)C(C)C(OC(C)=O)C1C (stereo not given) | 6.92 | 6.84 | 6.04 | 5.43
2 | CCCNC(=O)COc1cc2c(O)c3c(O)c(C)c4c(c13)C(=O)C(C)(O/C=C/C(OC)C(C)C(OC(C)=O)C(C)C(O)C(C)C(O)C(C)/C=C/C=C(/C)C(=O)N2)O4 (stereo not given) | 6.5 | 6.42 | 5.82 | 5.41
3 | CCN(C)C(=O)COc1cc2c(O)c3c(O)c(C)c4c(c13)C(=O)C(C)(O/C=C/C(OC)C(C)C(OC(C)=O)C(C)C(O)C(C)C(O)C(C)/C=C/C=C(/C)C(=O)N2)O4 (stereo not given) | 7.95 | 7.95 | 7.06 | 6.03
4 | CCNC(=O)COc1cc2c(O)c3c(O)c(C)c4c(c13)C(=O)C(C)(O/C=C/C(OC)C(C)C(OC(C)=O)C(C)C(O)C(C)C(O)C(C)/C=C/C=C(/C)C(=O)N2)O4 (stereo not given) | 6.99 | 7.5 | 6.2 | 5.4
5 | CCCN(C)C(=O)COc1cc2c(O)c3c(O)c(C)c4c(c13)C(=O)C(C)(O/C=C/C(OC)C(C)C(OC(C)=O)C(C)C(O)C(C)C(O)C(C)/C=C/C=C(/C)C(=O)N2)O4 (stereo not given) | 7.91 | 8.13 | 7.31 | 6.65
6 | COC1/C=C/OC2(C)Oc3c(C)c(O)c4c(O)c(cc(OCC(=O)N5C(C)CCC5C)c4c3C2=O)NC(=O)/C(C)=C\C=C\C(C)C(O)C(C)C(O)C(C)C(OC(C)=O)C1C (stereo not given) | 8.22 | 8.22 | 7.45 | 6.67
7 | C=CCN(CC=C)C(=O)COc1cc2c(O)c3c(O)c(C)c4c(c13)C(=O)C(C)(O/C=C/C(OC)C(C)C(OC(C)=O)C(C)C(O)C(C)C(O)C(C)/C=C/C=C(/C)C(=O)N2)O4 (stereo not given) | 8.22 | 8.44 | 7.22 | 6.67
8 | COC1/C=C/OC2(C)Oc3c(C)c(O)c4c(O)c(cc(OCC(=O)N(CCCl)CCCl)c4c3C2=O)NC(=O)/C(C)=C\C=C\C(C)C(O)C(C)C(O)C(C)C(OC(C)=O)C1C (stereo not given) | 7.24 | 7.47 | 5.77 | 6.38
9 | COC1/C=C/OC2(C)Oc3c(C)c(O)c4c(O)c(cc(OCC(=O)N(C)C(C)(C)C)c4c3C2=O)NC(=O)/C(C)=C\C=C\C(C)C(O)C(C)C(O)C(C)C(OC(C)=O)C1C (stereo not given) | 8.62 | 8.31 | 7.62 | 6.66
10 | COC1/C=C/OC2(C)Oc3c(C)c(O)c4c(O)c(cc(OCC(=O)N5CCCC5)c4c3C2=O)NC(=O)/C(C)=C\C=C\C(C)C(O)C(C)C(O)C(C)C(OC(C)=O)C1C (stereo not given) | 7.26 | 8.21 | 6.34 | 5.73
11 | COC1/C=C/OC2(C)Oc3c(C)c(O)c4c(O)c(cc(OCC(=O)N5CCCCC5)c4c3C2=O)NC(=O)/C(C)=C\C=C\C(C)C(O)C(C)C(O)C(C)C(OC(C)=O)C1C (stereo not given) | 8.01 | 8.22 | 6.92 | 6.04
12 | CCCN(CCC)C(=O)COc1cc2c(O)c3c(O)c(C)c4c(c13)C(=O)C(C)(O/C=C/C(OC)C(C)C(OC(C)=O)C(C)C(O)C(C)C(O)C(C)/C=C/C=C(/C)C(=O)N2)O4 (stereo not given) | 8.15 | 8.15 | 7.15 | 6.53
13 | COC1/C=C/OC2(C)Oc3c(C)c(O)c4c(O)c(cc(OCC(=O)N5CCC(C)CC5)c4c3C2=O)NC(=O)/C(C)=C\C=C\C(C)C(O)C(C)C(O)C(C)C(OC(C)=O)C1C (stereo not given) | 8.22 | 7.92 | 7.27 | 6.36
14 | COC1/C=C/OC2(C)Oc3c(C)c(O)c4c(O)c(cc(OCC(=O)N(C)C)c4c3C2=O)NC(=O)/C(C)=C\C=C\C(C)C(O)C(C)C(O)C(C)C(OC(C)=O)C1C (stereo not given) | 7.12 | 7.89 | 6.02 | 5.72
15 | CCCCN(C)C(=O)COc1cc2c(O)c3c(O)c(C)c4c(c13)C(=O)C(C)(O/C=C/C(OC)C(C)C(OC(C)=O)C(C)C(O)C(C)C(O)C(C)/C=C/C=C(/C)C(=O)N2)O4 (stereo not given) | 8.44 | 8.62 | 7.22 | 6.35
16 | COC1/C=C/OC2(C)Oc3c(C)c(O)c4c(O)c(cc(OCC(=O)N(c5ccccc5)c5ccccc5)c4c3C2=O)NC(=O)/C(C)=C\C=C\C(C)C(O)C(C)C(O)C(C)C(OC(C)=O)C1C (stereo not given) | 8.65 | 7.55 | 7.65 | 7.05
17 | COC1/C=C/OC2(C)Oc3c(C)c(O)c4c(O)c(cc(OCC(=O)NC(C)C)c4c3C2=O)NC(=O)/C(C)=C\C=C\C(C)C(O)C(C)C(O)C(C)C(OC(C)=O)C1C (stereo not given) | 6.7 | 7.12 | 5.9 | 5.41
18 | COC1/C=C/OC2(C)Oc3c(C)c(O)c4c(O)c(cc(OCC(=O)N(C)C5CCCCC5)c4c3C2=O)NC(=O)/C(C)=C\C=C\C(C)C(O)C(C)C(O)C(C)C(OC(C)=O)C1C (stereo not given) | 8.15 | 7.98 | 7.53 | 6.68
19 | CNC(=O)COc1cc2c(O)c3c(O)c(C)c4c(c13)C(=O)C(C)(O/C=C/C(OC)C(C)C(OC(C)=O)C(C)C(O)C(C)C(O)C(C)/C=C/C=C(/C)C(=O)N2)O4 (stereo not given) | 6.68 | 5.09 | 5.89 | 7.11
20 | COC1/C=C/OC2(C)Oc3c(C)c(O)c4c(O)c(cc(OCC(N)=O)c4c3C2=O)NC(=O)/C(C)=C\C=C\C(C)C(O)C(C)C(O)C(C)C(OC(C)=O)C1C (stereo not given) | 5.7 | 6.62 | 4.91 | 4.78
21 | COC1/C=C/OC2(C)Oc3c(C)c(O)c4c(O)c(cc(OCC(=O)N(CC(C)C)CC(C)C)c4c3C2=O)NC(=O)/C(C)=C\C=C\C(C)C(O)C(C)C(O)C(C)C(OC(C)=O)C1C (stereo not given) | 8.86 | 8.16 | 7.86 | 7.28
22 | CCCCN(CC)C(=O)COc1cc2c(O)c3c(O)c(C)c4c(c13)C(=O)C(C)(O/C=C/C(OC)C(C)C(OC(C)=O)C(C)C(O)C(C)C(O)C(C)/C=C/C=C(/C)C(=O)N2)O4 (stereo not given) | 8.62 | 8.15 | 7.62 | 6.27
23 | COC1/C=C/OC2(C)Oc3c(C)c(O)c4c(O)c(cc(OCC(=O)N(C)Cc5ccccc5)c4c3C2=O)NC(=O)/C(C)=C\C=C\C(C)C(O)C(C)C(O)C(C)C(OC(C)=O)C1C (stereo not given) | 8.24 | 8.16 | 7.09 | 6.37
24 | COC1/C=C/OC2(C)Oc3c(C)c(O)c4c(O)c(cc(OCC(=O)Nc5ccc(Cl)cc5)c4c3C2=O)NC(=O)/C(C)=C\C=C\C(C)C(O)C(C)C(O)C(C)C(OC(C)=O)C1C (stereo not given) | 6.54 | 6.86 | 6.39 | 5.64
25 | CCN(C(=O)COc1cc2c(O)c3c(O)c(C)c4c(c13)C(=O)C(C)(O/C=C/C(OC)C(C)C(OC(C)=O)C(C)C(O)C(C)C(O)C(C)/C=C/C=C(/C)C(=O)N2)O4)c1ccccc1 (stereo not given) | 8.46 | 8.16 | 7.33 | 6.37
